# Data reported in patent publication US20050054696A1, “Indole compounds and medicinal use thereof” (priority 2001, published 2005).
# Tests used:
# [1] = biological target: T1, recombinant human liver glycogen phosphorylase (HLGPa) (Homo sapiens, UniProt P06737); experiment: Measurement of liver glycogen phosphorylase activity (enzyme inhibitory activity against HLGPa); format: biochemical; conditions: Sf9 cell lysate expressing recombinant enzyme; reverse reaction (glycogen synthesis from G1-P), phosphate by malachite green, 60 min room temperature
# T1 construct: made in house; host or cells: Sf9 insect cells (unpurified cell lysate used as enzyme solution)
# T1 sequence (P06737 1-847): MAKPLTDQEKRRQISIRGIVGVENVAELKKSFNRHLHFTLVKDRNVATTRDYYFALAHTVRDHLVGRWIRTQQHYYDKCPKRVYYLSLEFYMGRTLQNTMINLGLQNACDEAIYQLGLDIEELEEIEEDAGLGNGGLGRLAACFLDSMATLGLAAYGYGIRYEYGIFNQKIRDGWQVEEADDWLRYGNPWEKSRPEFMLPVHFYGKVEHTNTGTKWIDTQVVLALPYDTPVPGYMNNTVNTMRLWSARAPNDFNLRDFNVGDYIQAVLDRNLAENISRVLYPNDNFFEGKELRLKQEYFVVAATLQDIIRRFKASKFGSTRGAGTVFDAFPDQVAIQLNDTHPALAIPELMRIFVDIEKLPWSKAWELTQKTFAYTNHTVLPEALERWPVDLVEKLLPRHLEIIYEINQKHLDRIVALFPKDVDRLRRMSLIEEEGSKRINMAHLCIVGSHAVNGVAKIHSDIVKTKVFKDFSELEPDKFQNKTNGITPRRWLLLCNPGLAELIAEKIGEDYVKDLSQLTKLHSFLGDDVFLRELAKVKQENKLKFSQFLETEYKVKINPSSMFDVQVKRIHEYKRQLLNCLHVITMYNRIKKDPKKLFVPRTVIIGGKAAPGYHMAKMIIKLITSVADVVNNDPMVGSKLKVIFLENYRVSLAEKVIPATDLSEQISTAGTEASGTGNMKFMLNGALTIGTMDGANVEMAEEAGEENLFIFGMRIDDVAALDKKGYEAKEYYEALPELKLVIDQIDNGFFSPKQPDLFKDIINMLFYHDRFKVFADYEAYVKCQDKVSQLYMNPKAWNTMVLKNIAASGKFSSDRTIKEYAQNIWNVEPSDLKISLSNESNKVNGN
# In short: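 Activity was run in the reverse, glycogen-synthesis direction, using Sf9 lysate expressing recombinant human liver glycogen phosphorylase (enzyme solution 80 μg/mL protein, pH 7.0). Substrate solution was Tris pH 7.2 with 1.25 mM glucose-1-phosphate, 2.5 mg/ml glycogen and 7.5 mM glucose, reacted 60 min at room temperature. Released phosphate was measured by malachite green A650, with % inhibition taken against DMSO control and no-enzyme blank.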
# [2] = test system: db/db mice; experiment: Measurement of plasma glucose concentration in obesity type diabetes model db/db mice; format: in vivo; conditions: Mus musculus, po; plasma glucose 1 and 3 hr after administration, after fasting for 4 hr; significant difference vs solvent group (Dunnett's test); read-out: Minimum effective dose db/db mouse
# Protocol: Measurement Method of Plasma Glucose Concentration
# Using obesity type diabetes model db/db mice, the effect of the compound (1) of the present invention on glucose concentration in plasma was examined. The glucose concentration in the plasma of db/db mice (10-15 weeks of age) was measured, and the mice were grouped into 5 mice per group such that the average glucose concentration of plasma is leveled. After fasting for 4 hr, the test drug or a solvent (0.5% methyl cellulose) was orally administered to db/db mice, and plasma glucose concentration at 1 and 3 hr after the administration was measured. The hypoglycemic effect of the test drug was evaluated by detecting a significant difference every hour between the solvent administration group and the test drug administration group (Dunnett's test).
smiles,measurement,setting,value
"O=C(NN1C(=O)N[C@@H](c2ccccc2)C1=O)c1cc2cc(Cl)ccc2[nH]1 (stereo in doubt) [Example 4, N-(2,4-dioxo-5-phenylimidazolidin-3-yl)-5-chloro-1H-indole-2-carboxamide]",IC50,[1],85 nM
same,minimal effective dose,[2],10 mg/kg
"Nc1ccccc1C(=O)NNC(=O)c1cc2cc(Cl)ccc2[nH]1 [Example 1-2, 2-Aminobenzoic acid 2-(5-chloro-1H-indole-2-carbonyl)hydrazide]",IC50,[1],13 nM
same,minimal effective dose,[2],10 mg/kg
"O=C(NNC(=O)c1cc2cc(Cl)ccc2[nH]1)c1c[nH]cn1 [Example 1-81, 1H-imidazole-4-carboxylic acid 2-(5-chloro-1H-indole-2-carbonyl)hydrazide]",IC50,[1],28 nM
same,minimal effective dose,[2],10 mg/kg
"Cc1ccc(C(=O)NNC(=O)c2cc3cc(Cl)ccc3[nH]2)s1 [Example 1-88, 5-methylthiophene-2-carboxylic acid 2-(5-chloro-1H-indole-2-carbonyl)hydrazide]",IC50,[1],20 nM
same,minimal effective dose,[2],10 mg/kg
"Cc1cccc(C(=N)NNC(=O)c2cc3cc(Cl)ccc3[nH]2)c1 [Example 1-134, 5-chloro-1H-indole-2-carboxylic acid 2-(imino-(m-tolyl)-methyl)hydrazide]",IC50,[1],40 nM
same,minimal effective dose,[2],10 mg/kg
"O=C(Nn1c(=O)[nH]c2cccc(Cl)c2c1=O)c1cc2cc(Cl)ccc2[nH]1 [Example 2-17, 5-chloro-1H-indole-2-carboxylic acid (5-chloro-1,2,3,4-tetrahydro-2,4-dioxoquinazolin-3-yl)amide]",IC50,[1],37 nM
same,minimal effective dose,[2],10 mg/kg
"Cc1ccc2[nH]c(C(=O)Nn3c(=O)[nH]c4ccccc4c3=O)cc2c1 [Example 2-23, 5-methyl-1H-indole-2-carboxylic acid (1,2,3,4-tetrahydro-2,4-dioxoquinazolin-3-yl)amide]",IC50,[1],24 nM
same,minimal effective dose,[2],3 mg/kg
"Cc1ccc2[nH]c(C(=O)Nn3c(=O)[nH]c4cc(F)ccc4c3=O)cc2c1 [Example 2-24, 5-methyl-1H-indole-2-carboxylic acid (7-fluoro-1,2,3,4-tetrahydro-2,4-dioxoquinazolin-3-yl)amide]",IC50,[1],17 nM
same,minimal effective dose,[2],3 mg/kg
"O=C(NN1C(=O)CCNC1=O)c1cc2cc(Cl)ccc2[nH]1 [Example 3, N-(2,4-dioxo-perhydropyrimidin-3-yl)-5-chloro-1H-indole-2-carboxamide]",IC50,[1],> 100 nM
same,minimal effective dose,[2],10 mg/kg
"O=C(NN1C(=O)N[C@H](c2ccccc2)C1=O)c1cc2cc(Cl)ccc2[nH]1 [Example 4-6, 5-chloro-1H-indole-2-carboxylic acid ((4R)-2,5-dioxo-4-phenylimidazolidin-1-yl)amide]",IC50,[1],65 nM
same,minimal effective dose,[2],10 mg/kg
"O=C(NN1C(=O)NC(c2ccc(F)cc2)C1=O)c1cc2cc(Cl)ccc2[nH]1 (centres unmarked) [Example 4-16, 5-chloro-1H-indole-2-carboxylic acid (2,5-dioxo-4-(4-fluorophenyl)imidazolidin-1-yl)amide]",minimal effective dose,[2],10 mg/kg
"COc1ccc([C@@H]2NC(=O)N(NC(=O)c3cc4cc(Cl)ccc4[nH]3)C2=O)cc1 [Example 4-19, 5-chloro-1H-indole-2-carboxylic acid ((4S)-2,5-dioxo-4-(4-methoxyphenyl)imidazolidin-1-yl)amide]",IC50,[1],96 nM
same,minimal effective dose,[2],10 mg/kg
"O=C(NNC(=O)c1cc2cc(Cl)ccc2[nH]1)Nc1ccccc1Cl [Example 5-9, 5-chloro-1H-indole-2-carboxylic acid 2-((2-chloroanilino)carbonyl)hydrazide]",IC50,[1],> 100 nM
"O=C(NNC(=O)c1cc2cc(Cl)ccc2[nH]1)Nc1cccc(Cl)c1 [Example 5-10, 5-chloro-1H-indole-2-carboxylic acid 2-((3-chloroanilino)carbonyl)hydrazide]",IC50,[1],> 100 nM
"O=C(NNC(=O)c1cc2cc(Cl)ccc2[nH]1)Nc1ccc(Cl)cc1 [Example 5-11, 5-chloro-1H-indole-2-carboxylic acid 2-((4-chloroanilino)carbonyl)hydrazide]",IC50,[1],> 100 nM
"O=C(NNC(=O)C1(c2ccccc2)CC1)c1cc2cc(Cl)ccc2[nH]1 [Example 5-12, 5-chloro-1H-indole-2-carboxylic acid 2-((1-phenylcyclopropane)carbonyl)hydrazide]",IC50,[1],290 nM
"O=C(NNC(=O)C1(c2ccccc2)CCCC1)c1cc2cc(Cl)ccc2[nH]1 [Example 5-13, 5-chloro-1H-indole-2-carboxylic acid 2-((1-phenylcyclopentane)carbonyl)hydrazide]",IC50,[1],410 nM
"O=C(NNC(=O)C1(c2ccccc2)CCCCC1)c1cc2cc(Cl)ccc2[nH]1 [Example 5-14, 5-chloro-1H-indole-2-carboxylic acid 2-((1-phenylcyclohexane)carbonyl)hydrazide]",IC50,[1],300 nM
"CC(C(=O)NNC(=O)c1cc2cc(Cl)ccc2[nH]1)c1ccccc1 (centres unmarked) [Example 5-15, 5-chloro-1H-indole-2-carboxylic acid 2-(2-phenylpropanoyl)hydrazide]",IC50,[1],63 nM
"N[C@H](C(=O)NNC(=O)c1cc2cc(Cl)ccc2[nH]1)c1ccccc1 [Example 5-18, 5-chloro-1H-indole-2-carboxylic acid 2-((2S)-2-amino-2-phenylacetyl)hydrazide]",IC50,[1],> 100 nM
"Cl.N=C(NNC(=O)c1cc2cc(Cl)ccc2[nH]1)c1ccccc1 [Example 6, 5-chloro-1H-indole-2-carboxylic acid 2-(imino-phenyl-methyl)hydrazide hydrochloride]",IC50,[1],62 nM
same,minimal effective dose,[2],3 mg/kg
"CS(=O)(=O)O.N=C(NNC(=O)c1cc2cc(Cl)ccc2[nH]1)c1ccccc1 [Example 6-17, 5-chloro-1H-indole-2-carboxylic acid 2-(imino-phenyl-methyl)hydrazide methanesulfonate]",IC50,[1],80 nM
same,minimal effective dose,[2],3 mg/kg
"N=C(NNC(=O)c1cc2cc(Cl)ccc2[nH]1)c1ccccc1Cl.O=C(O)/C=C\C(=O)O [Example 6-18, 5-chloro-1H-indole-2-carboxylic acid 2-((2-chlorophenyl)-imino-methyl)hydrazide butenedioic acid salt]",IC50,[1],49 nM
same,minimal effective dose,[2],3 mg/kg
"CS(=O)(=O)O.N=C(Cc1ccccc1)NNC(=O)c1cc2cc(Cl)ccc2[nH]1 [Example 6-21, 5-chloro-1H-indole-2-carboxylic acid 2-((1-imino-2-phenylethyl)hydrazide methanesulfonate]",IC50,[1],84 nM
CS(=O)(=O)O.N=C(Cc1ccccc1)NNC(=O)c1cc2cc(Cl)ccc2[nH]1 [Example 6-21],minimal effective dose,[2],10 mg/kg
"N=C(NNC(=O)c1cc2cc(Cl)ccc2[nH]1)c1ccc(F)c(F)c1 [Example 6-23, 5-chloro-1H-indole-2-carboxylic acid 2-((3,4-difluorophenyl)-imino-methyl)hydrazide methanesulfonate]",IC50,[1],67 nM
"COc1ccccc1C(=N)NNC(=O)c1cc2cc(Cl)ccc2[nH]1 [Example 6-24, 5-chloro-1H-indole-2-carboxylic acid 2-(imino-(2-methoxyphenyl)-methyl)hydrazide methanesulfonate]",IC50,[1],160 nM
"N=C(NNC(=O)c1cc2cc(Cl)ccc2[nH]1)c1c(F)cccc1F [Example 6-25, 5-chloro-1H-indole-2-carboxylic acid 2-((2,6-difluorophenyl)-imino-methyl)hydrazide methanesulfonate]",IC50,[1],330 nM
"Cc1ccc(C(=N)NNC(=O)c2cc3cc(Cl)ccc3[nH]2)n1C [Example 6-27, 5-chloro-1H-indole-2-carboxylic acid 2-((1,2-dimethyl-1H-pyrrol-5-yl)-imino-methyl)hydrazide methanesulfonate]",IC50,[1],170 nM
"Cc1ccc2[nH]c(C(=O)NNC(=O)c3ccccc3N)cc2c1 [Example 6-28, 2-aminobenzoic acid 2-(5-methyl-1H-indole-2-carbonyl)hydrazide p-toluenesulfonate]",IC50,[1],250 nM
